Laboratory results taken from ChEMBL document CHEMBL6177952, “Exploring chloro-isoxazole compounds inspired on tetrahydrofuran neolignans as promising antileishmanial agents” (Eur J Med Chem, 2025).

Columns and labels:
[1] = Mutagenicity in Salmonella typhimurium TA100 assessed as number of revertant colonies per plate at 150 microg/ml by Ames test; format: toxicity; details: salmonella enterica subsp. enterica serovar typhimurium; dose 150 µg/ml
[2] = Mutagenicity in Salmonella typhimurium TA100 assessed as number of revertant colonies per plate at 1500 microg/ml by Ames test; format: toxicity; details: salmonella enterica subsp. enterica serovar typhimurium; dose 1500 µg/ml
[3] = Cytotoxicity against BALB/c mouse Peritoneal macrophage assessed as inhibition of cell growth incubated for 48 hrs by MTT assay; format: toxicity, cell-based; details: peritoneal macrophages
[4] = Mutagenicity in Salmonella typhimurium TA100 assessed as number of revertant colonies per plate at 5000 microg/ml by Ames test; format: toxicity; details: salmonella enterica subsp. enterica serovar typhimurium; dose 5000 µg/ml
[5] = Mutagenicity in Salmonella typhimurium TA98 assessed as number of revertant colonies per plate at 5000 microg/ml by Ames test; format: toxicity; details: salmonella enterica subsp. enterica serovar typhimurium; dose 5000 µg/ml
[6] = tested on: Leishmania amazonensis; assay: Antileishmanial activity against Leishmania amazonensis promastigotes assessed as early apoptotic parasites at 38.1 uM incubated for 24 hrs by Annexin V/7-AAD staining based flow cytometry analysis relative to control; format: functional
[7] = Mutagenicity in Salmonella typhimurium TA98 assessed as number of revertant colonies per plate at 150 microg/ml by Ames test; format: toxicity; details: salmonella enterica subsp. enterica serovar typhimurium; dose 150 µg/ml
[8] = tested on: Leishmania amazonensis; assay: Antileishmanial activity against Leishmania amazonensis promastigotes assessed as necrotic parasites at 38.1 uM incubated for 48 hrs by Annexin V/7-AAD staining based flow cytometry analysis relative to control; format: functional
[9] = tested on: Leishmania amazonensis; assay: Antileishmanial activity against Leishmania amazonensis promastigotes assessed as viable apoptotic parasites at 38.1 uM incubated for 24 hrs by Annexin V/7-AAD staining based flow cytometry analysis relative to control; format: functional
[10] = tested on: Leishmania amazonensis; assay: Antileishmanial activity against leishmania amazonensis infected in BALB/c mouse assessed as reduction in viable parasites in footpad tissue at 5 mg/kg, ILES measured after 65 days post infection relative to control; format: functional; details: time 65 day
[11] = tested on: Leishmania amazonensis; assay: Antileishmanial activity against Leishmania amazonensis promastigotes assessed as late apoptotic parasites at 38.1 uM incubated for 24 hrs by Annexin V/7-AAD staining based flow cytometry analysis relative to control; format: functional
[12] = tested on: Leishmania amazonensis; assay: Antileishmanial activity against Leishmania amazonensis promastigotes assessed as early apoptotic parasites at 38.1 uM incubated for 72 hrs by Annexin V/7-AAD staining based flow cytometry analysis relative to control; format: functional

What does the source list for `COc1cc(-c2cc(-c3ccc4c(c3)OCO4)on2)c(Cl)c(OC)c1OC`?
Activity [1]: 94.6 revertants/plate; Activity [2]: 116 revertants/plate; CC50 at 48 h [3]: 50.1 µM; Activity [4]: 114 revertants/plate; revertant count [5]: 21.3 revertants/plate; Activity [6]: 0.8%; revertant count [7]: 9.7 revertants/plate; Activity [8]: 0.6%; Activity [9]: 95.5%; Activity [10]: 99.5%; Activity [11]: 0.4%; Activity [12]: 2.4%
